Results: patent US20080045467A1, “Composition Containing Ginsenoside F1 Or Compound K For Skin External Application” (Amorepacific Corporation, priority 2004, published 2008)

Columns and labels:
laminin 10/11 = assay: Biosynthesis of laminin 10/11 in human keratinocyte (Dot Blot); format: cell-based; conditions: 24 hours, control group = 100
Description: Human keratinocyte was cultured with a concentration of 5×10^4 cells/well in 24-well plate mediums, and each medium was exchanged with a new one containing the compound separated in either Example 1 or 2 at the densities of 0.1 ppm, 1 ppm or 10 ppm. After 24 hours of cultivation, the supernatants were harvested and the amount of laminin 10/11 was quantified using Dot Blot method.

MMP-9 = assay: Inhibition of biosynthesis of MMP-9 in UVB-irradiated human keratinocyte (gelatin zymography); format: cell-based; conditions: 30 mJ/cm^2 UVB, 2 days, amount relative to control group = 100
Description: (§1) Human keratinocyte was cultured with a concentration of 10^4 cells/well in 24-well plate mediums, and 24 hours later they were irradiated with 30 mJ/cm^2 of UVB. Each medium was then exchanged with a new one containing the compound separated in either Example 1 or 2 at the densities of 0.1 ppm, 1 ppm or 10 ppm, respectively. After 2 days of cultivation, the supernatants were obtained and gelatin zymography was performed on the obtained supernatant to form MMP-2 and MMP-9. The amount of MMP-2 and MMP-9 thus formed was determined by densitometer for each medium, and was compared with the amount of MMP-2 and MMP-9 in the control group, which was set as 100 (The mediums not containing the compounds in Examples 1 and 2 were cultured as a control group).

Type IV collagen = assay: Biosynthesis of Type IV collagen in human keratinocyte (Dot Blot); format: cell-based; conditions: 24 hours, control = 100
Description: Human keratinocyte was cultured with a concentration of 5×10^4 cells/well in 24-well plate mediums, and each medium was exchanged with a new one containing the compound separated in either example 1 or 2 at the densities of 0.1 ppm, 1 ppm or 10 ppm. After 24 hours of cultivation, the supernatants were harvested and the amount of Type IV collagen was quantified using Dot Blot method.

Type VII collagen = assay: Biosynthesis of Type VII collagen in human fibroblast (Dot Blot); format: cell-based; conditions: 24 hours, control group = 100
Description: Human fibroblast was cultured with a concentration of 10^4 cells/well in 24-well plate mediums, and each medium was exchanged with a new one containing the compound separated in Example 1 or 2 at the densities of 0.1 ppm, 1 ppm or 10 ppm. After 24 hours of cultivation, the supernatants were harvested and the amount of Type VII collagen was quantified using Dot Blot method.

MMP-2 = assay: Inhibition of biosynthesis of MMP-2 in UVB-irradiated human keratinocyte (gelatin zymography); format: cell-based; conditions: 30 mJ/cm^2 UVB, 2 days, amount relative to control group = 100
Description: as §1

[1] = tested on: epidermal-dermal junction; assay: Change in epidermal-dermal junction of UV-irradiated nude mouse (electron microscope); format: in vivo; conditions: applied while irradiating with UV light, compared to comparative formulation 1
Description: In order to verify the change to the epidermal-dermal junction irradiated with UV light by the composition of the present invention, external applications with the formulation of nutrition cream were prepared according to the ratios in Table 5.
Each of the formulations 1˜3 and the comparative formulation 1 were applied to the back of each nude mouse 5 times in a week for 2 weeks, and for 12 weeks thereafter each of the formulations 1˜3 and the comparative formulation 1 were applied 5 times per week while irradiating UV light 3 times. After biopsy, the change of the epidermal-dermal junction was determined by electron microscope.

| Structure (SMILES) | Biosynthesis of laminin 10/11 (%) (laminin 10/11; 0.1 ppm) | Biosynthesis of laminin 10/11 (%) (laminin 10/11; 1 ppm) | Biosynthesis of laminin 10/11 (%) (laminin 10/11; 10 ppm) | MMP-9 (%) (MMP-9; 0.1 ppm) | MMP-9 (%) (MMP-9; 1 ppm) | MMP-9 (%) (MMP-9; 10 ppm) | Biosynthesis of Type IV collagen (%) (Type IV collagen; 0.1 ppm) | Biosynthesis of Type IV collagen (%) (Type IV collagen; 1 ppm) | Biosynthesis of Type IV collagen (%) (Type IV collagen; 10 ppm) | Biosynthesis of Type VII collagen (%) (Type VII collagen; 0.1 ppm) | Biosynthesis of Type VII collagen (%) (Type VII collagen; 1 ppm) | Biosynthesis of Type VII collagen (%) (Type VII collagen; 10 ppm) | MMP-2 (%) (MMP-2; 0.1 ppm) | MMP-2 (%) (MMP-2; 1 ppm) | MMP-2 (%) (MMP-2; 10 ppm) | change, separation or multiplexing of the epidermal-dermal junction [1] |
| --- | --- | --- | --- | --- | --- | --- | --- | --- | --- | --- | --- | --- | --- | --- | --- | --- |
| CC(C)=CCC[C@](C)(O[C@@H]1O[C@H](CO)[C@@H](O)[C@H](O)[C@H]1O)[C@H]1CC[C@]2(C)[C@@H]1[C@H](O)C[C@@H]1[C@@]3(C)CC[C@H](O)C(C)(C)[C@@H]3[C@@H](O)C[C@]12C [Example 1, 20-O-β-D-glucopyranosyl-20(S)-protopanaxatriol] | 112 | 125 | 134 | 85 | 69 | 55 | 116 | 129 | 134 | 118 | 132 | 141 | 82 | 67 | 51 | little change, separation or multiplexing |
| CC(C)=CCC[C@](C)(O[C@@H]1O[C@H](CO)[C@@H](O)[C@H](O)[C@H]1O)[C@H]1CC[C@]2(C)[C@@H]1[C@H](O)C[C@@H]1[C@@]3(C)CC[C@H](O)C(C)(C)[C@@H]3CC[C@]12C [Example 2, 20-O-β-D-glucopyranosyl-20(S)-protopanaxadiol] | 115 | 125 | 137 | 78 | 62 | 49 | 119 | 128 | 139 | 120 | 135 | 146 | 79 | 61 | 48 | little change, separation or multiplexing |
